“Also recorded” adds a separate entry of the source.
Assays:
[1] = system: T follicular helper (Tfh) cells; test: In vivo immunosuppression, T follicular helper cells (Example 3); conditions: 8 days
Procedure: The in vivo immunosuppressive effect of JH-FK-08 was assessed by studying T follicular helper (Tfh) cell production in mice. Tfh cells play a role in protection against and response to fungal infections (see, Wong G K, et al., 1998. J Antibiot 51:487-491; Cruz M C, et al., 1999. Mol Cell Biol 19:4101-4112). For this study, immunocompetent C57BL/6 mice received 8 days of twice-daily dosing of vehicle, FK506 (2.5 mg/kg), or JH-FK-08 (20 or 40 mg/kg). Twenty-four hours after the first dose, mice were immunized with NP-OVA to induce an immune response. Cells were analyzed 7 days post immunization, and cell types were analyzed by flow cytometry (FIG. 15B).
Cell surface staining of single cell suspensions was performed in staining buffer (PBS supplemented with 2 mM EDTA and 0.5% BSA). Anti-FcγR (93; Biolegend) was treated to block the Fe receptor before surface staining of primary cells isolated from lymph nodes of NP-OVA-immunized mice. Cells were stained with fixable viability dye (eBioscience) before surface staining to exclude dead cells from analysis. For the detection of intracellular cytokines, cells were additionally incubated with phorbol 12-myristate 13-acetate and ionomycin in the presence of GolgiStop (BD Biosciences) during the final 4 h of incubation. For intracellular staining, cells were fixed and permeabilized with Fixation/Permeabilization Buffer (eBioscience). Flow cytometric analysis was performed utilizing BD FACSCantoII or BD LSRFortessaX20 (BD Biosciences) and FlowJo software (BD Biosciences).
Groups of five female C57BL/6 mice were treated twice daily for 8 days with vehicle, FK506 (2.5 mg/kg), JH-FK-08 (20 mg/kg), or JH-FK-08 (40 mg/kg) via i.p. injection. Twenty-four hours after the first dose, animals were immunized with NP-OVA (100 μg) in alum via subcutaneous injection. Seven days post immunization, mice were sacrificed, and draining lymph nodes were harvested for the analysis of Tfh cells and GC B cells by flow cytometry.

[2] = system: T follicular helper (Tfh) cells; test: In vivo immunosuppression, T follicular helper cells (Example 1); parameters: species or system mouse (C57BL/6); conditions: daily i.p., FK506 5 mg/kg or JH-FK-05 60 mg/kg; day 7
Procedure: Based on the in vitro evidence of reduced immunosuppressive activity of JH-FK-05, it was hypothesized that this reduction would translate into reduced immunosuppression in an in vivo model. The murine model for immunosuppression measures the T cell-dependent proliferation of two immune cell subtypes in response to immunization with an antigen. Animals were treated daily via intraperitoneal (i.p.) injection with vehicle, 5 mg/kg FK506, or 60 mg/kg JH-FK-05, beginning on day −1 and ending on day 7. […] On day 0, animals were immunized with NP-OVA to stimulate T cell-dependent signaling that would result in proliferation of T follicular helper (Tfh) cells and germinal center (GC) B cells. Animals were sacrificed on day 7, and the proportions of Tfh and GC B cells in the lymph nodes were measured. […]
Groups of 6 female C57BL/6 mice (Jackson Laboratory) were treated daily by intraperitoneal (i.p.) injection with about 100 μL vehicle, 5 mg/kg FK506, or 60 mg/kg JH-FK-05 beginning on day −1. […] Mice were treated and monitored daily until they were sacrificed on day 7. Draining lymph nodes were harvested on day 7, and the populations of T follicular helper cells and GC B cells were analyzed by flow cytometry. Tfh and GC B cells were measured from T Cell Receptor β (TCRβ^+) CD4^+CD44^hi cells and TCRβ^−CD19^+ cells, respectively.

[3] = system: C. neoformans strain H99; test: Survival during cryptococcal infection (Example 3); assay type: in vivo, Cryptococcus neoformans in A/J mice
Procedure: Finally, whether the antifungal efficacy translates into extended survival during infection was assessed. To test the impact of treatment on survival, murine survival was monitored in the cryptococcosis infection model. Following the same protocol of infection and dosing as in the fungal burden experiment, animal survival was monitored following infection and 2 weeks of intraperitoneal dosing. Fluconazole treatment extended median survival from 16 to 27 days.
C. neoformans inoculum was prepared by growing a 5-mL overnight YPD culture spinning in a tissue culture roller drum at 30° C. Cells were pelleted by centrifugation and washed in sterile PBS three times. Cell density was determined by hemocytometer, and cells were diluted to 2×10^6 cells/mL. Mice (10 to 20 g) were infected with 10^5 cells of C. neoformans H99. For inhalation infection, animals were anesthetized with isoflurane before 50 μL of inoculum was pipetted onto the upright nasal passages of each animal. Following inhalation of the inoculum, animals were monitored for post anesthesia recovery. Treatment of animals began 4 hours post infection and was continued for 14 days. Fungal burden was assessed 24 h after the final dose.
For survival curve analysis, animals were monitored until reaching defined humane end points, including social isolation, hunched posture, weight loss, lack of grooming, and labored breathing, and were then euthanized via CO2 inhalation. For fungal burden analysis, mice were euthanized following 2 weeks of treatment with a designated antifungal, vehicle, or combination. Brain, lung, and spleen were harvested from animals, weighed, and homogenized in sterile PBS using steel beads and a bead beater. Each organ homogenate was serially diluted 10-fold to 10-4 in PBS. One hundred microliters of each dilution was plated on YPD plates supplemented with YPD 50 μg/mL ampicillin and 30 μg/mL chloramphenicol, incubated at 30° C. for 2 days, and assessed for colony-forming units. CFU per organ weight was calculated and plotted using GraphPad Prism 9.

Structure (SMILES)	production of Tfh cells ([1]; FK506 2.5 mg/kg i.p. twice daily, 2.5 mg/kg)	proliferation/presence of Tfh cells [2]	production of Tfh cells ([1]; JH-FK-08 20 mg/kg i.p. twice daily)	production of Tfh cells ([1]; JH-FK-08 40 mg/kg i.p. twice daily)	survival compared to vehicle/untreated ([3]; 2 weeks twice daily i.p. 40 mg/kg, 40 mg/kg)	median survival ([3]; 2 weeks twice daily i.p., fluconazole 6 mg/kg, JH-FK-08 40 mg/kg, vehicle 16 days)	combination effect with fluconazole ([3]; in vivo)
C=CCC1C=C(C)CC(C)CC(OC)C2OC(O)(C(=O)C(=O)N3CCCCC3C(=O)OC(C(C)=CC3CCC(O)C(OC)C3)C(C)C(O)CC1=O)C(C)CC2OC (centres unmarked) [FK506, reference compound]	significantly reduced; also recorded: significantly inhibits Tfh cell production at 1/16 of the dose of JH-FK-08	significantly reduced the proliferation	–	–	–	–	–
CC[C@@H]1/C=C(\C)C[C@H](C)C[C@H](OC)[C@H]2O[C@@](O)(C(=O)C(=O)N3CCCC[C@H]3C(=O)O[C@H](/C(C)=C/[C@@H]3CC[C@@H](O)[C@H](OC)C3)[C@H](C)[C@@H](O)C/C1=N/NC(C)=O)[C@H](C)C[C@@H]2OC [JH-FK-05]	–	did not reduce the presence of either cell type and was statistically indistinguishable from the vehicle treatment	–	–	–	–	–
CC[C@@H]1/C=C(\C)C[C@H](C)C[C@H](OC)[C@H]2O[C@@](O)(C(=O)C(=O)N3CCCC[C@H]3C(=O)O[C@H](/C(C)=C/C3CC[C@@H](O)[C@H](OC)C3)[C@H](C)[C@@H](O)C/C1=N/NC(=O)OC)[C@H](C)C[C@@H]2OC (some centres unmarked) [JH-FK-08]	–	–	no significant effect on the percent of Tfh cells produced compared to vehicle	production of Tfh cells was reduced	more than doubled median survival; also recorded: more than double murine survival time	33 days	additive activity in combination with fluconazole in vivo
